{"source": "patent US9345781B2", "about": "“Targeted dendrimer-drug conjugates” (priority 2009, dated 2016)", "key": {"[1]": {"test_system": "tumors of nude tumor bearing mice", "test": "Tumor growth in nude tumor bearing mice after intravenous dosing", "type": "in vivo", "settings": "one dose/week for 3 weeks", "procedure": "(§1) Nude tumor bearing mice were administered by intravenous injection a single dose of 6, 8, 10, or 12 mg/kg of free DOX (one dose/week for 3 weeks). The mice were sacrificed two weeks after the last administration and the tumors were harvested for analysis. Tumor size was measured and compared to the size of tumors harvested from mice administered a saline control.\nThe above experiment was repeated with an 8 mg/kg dose of free DOX and two additional test groups of mice: one group of mice were administered a dendrimer conjugate comprising a G5 dendrimer conjugated to DOX (G5-OXY-DOX) comprising an azo linkage comprising the structure of\n(§2) Also, in this experiment, instead of being sacrificed two weeks after the last administration, the tumor volumes of the mice were measured one week after the last administration and then measured again four weeks later."}, "[2]": {"test": "Toxicity and body weight of treated mice", "type": "in vivo", "settings": "one dose/week for 3 weeks", "procedure": "as §1, §2"}, "[3]": {"test_system": "HepG2 cells", "test": "Clonogenic survival of HepG2 cells", "type": "cell-based, human", "settings": "72 hour incubation, equivalent DOX concentration", "quoted_text": "(§3) We compared the anticancer activity of G5-L(x)-DOX conjugates to free DOX as a function of concentration by measuring their effect on clonogenic survival of HepG2 and Hep3B hepatic cancer cells. Briefly, HepG2 and Hep3B cells were seeded at a density of 2.5×10^5 cells/T-25 flask and allowed to adhere overnight before incubating with different concentrations (1 nM-100 μM equivalent concentration of DOX) of free DOX or G5-L(x)-DOX conjugates dissolved in OPTI-MEM solution. […] After 72 hours HepG2 and Hep3B cells were washed with cold PBS, trypsinized using a 0.25% trypsin-EDTA solution and centrifuged at 1,000 rpm for 5 minutes. Cell pellets were suspended in fresh culture medium, counted, and plated in 6-well plates at a seeding density of 500-10,000 cells/well and allowed to grow undisturbed for 14 days under normal culture conditions. The formed colonies were gently washed with cold PBS, treated with 1 mL methanol/glacial acetic acid (75/25) and 0.04% w/v trypan blue for 5 minutes and counted. Plating efficiency (PE) for each cell line was calculated by dividing the number of colonies by the cell seeding density for cells incubated with fresh culture medium (negative control). […] All samples were prepared in triplicate for each seeding density and treatment condition, and results expressed as the average % SF±SEM. […]"}, "[4]": {"test_system": "Hep3B cells", "test": "Clonogenic survival of Hep3B cells", "type": "cell-based, human", "quoted_text": "as §3"}, "[5]": {"test_system": "rat cardiomyocytes", "test": "LDH leakage cell viability assay in rat cardiomyocytes", "type": "cell-based", "settings": "100 μM eq. DOX, 8 hour incubation, versus blank medium", "procedure": "Toxicity of G5-L4-DOX conjugates and free DOX in rat cardiomyocytes was evaluated using the lactate dehydrogenase (LDH) leakage cell viability assay. Briefly, each well was counted for total number of cardiomyocytes before an 8 hour treatment with free DOX or G5-L4-DOX (100 μM eq. DOX) conjugates dissolved in 0.5 mL HBSS. The amount of LDH released to the medium was assayed by mixing […] of the treatment solution in a 96-well plate with the enzyme substrate (1:1) included in the assay kit following the manufacturer's guidelines. […] Amount of LDH leakage for treatment solution and controls were normalized to the number of seeded cells, and all values compared to the positive control (set as 100% LDH leakage reference) to obtain the percentage of LDH leakage as a function of treatment."}}, "data": [{"smiles": "COc1cccc2c1C(=O)c1c(O)c3c(c(O)c1C2=O)C[C@@](O)(C(=O)CO)C[C@@H]3O[C@H]1C[C@H](N)[C@H](O)[C@H](C)O1.Cl", "note": "(relative stereo) [Free DOX, 5,12-Naphthacenedione, 10-[(3-amino-2,3,6-trideoxy-α-L-lyxo-hexopyranosyl)oxy]-7,8,9,10-tetrahydro-6,8,11-trihydroxy-8-(hydroxylacetyl)-1-methoxy-, hydrochloride (8S-cis)]", "values": [{"measurement": "reduction in tumor size versus saline control", "setting": "[1]; 6 mg/kg i.v.", "result": "did not cause any substantial reduction in tumor size"}, {"measurement": "tumor growth versus control mice", "setting": "[1]; 8 and 10 mg/kg i.v.", "result": "inhibited tumor growth"}, {"measurement": "toxicity to mice", "setting": "[2]; 10 mg/kg i.v.", "result": "slight increase in toxicity"}, {"measurement": "toxicity to mice", "setting": "[2]; 12 mg/kg i.v.", "result": "too toxic to mice"}, {"measurement": "IC50", "setting": "[3]", "result": 10, "unit": "nM"}, {"measurement": "fold reduction in IC50 in Hep3B compared to HepG2 cells", "setting": "[4]; 72 hours", "result": 5, "unit": "fold"}, {"measurement": "IC50", "setting": "[4]; clonogenic survival, 72 hour incubation, equivalent DOX concentration", "result": 2, "unit": "nM"}, {"measurement": "LDH leakage / cardiac toxicity", "setting": "[5]", "result": "nearly double the % of LDH leakage"}, {"measurement": "LDH leakage / cardiac toxicity", "setting": "[5]; listed as free DOX", "result": "toxic"}]}]}
